The format of data set [1] is physicochemical. Particulars: pH 7.5.
For data set [2], the system named is Swiss Webster mice. The note with it: mouse, in vivo.
Data set [3] deals with rat vas deferens. The note with it: cited from earlier work.
In data set [4] the test system is Swiss Webster mice. Particulars: mouse, in vivo; cited from earlier work.

On to ω-conotoxin GVIA, for which, in data set [1], the “natively folded peptide retained at the steady state” value is “about 60%”. Besides, in data set [2], the “duration of shaking syndrome” value is “maintained for a long time” and the “shaking syndrome (persistent body tremor)” value was “exhibited the shaking syndrome”. The “Biological activity (twitch responses)” value in data set [3] is on record as 10 nM. For the same substance, in data set [4], the “duration of shaking syndrome, previous work” value is “maintained for a long time in a dose-dependent manner” and the “shaking syndrome, previous work” value is “induce shaking syndrome in mice”.

(Values after PMC3395435 (Biopolymers, 2012).)
